These results are taken from publication PMC5339874, “Fluorene-9-bisphenol is anti-oestrogenic and may cause adverse pregnancy outcomes in mice” (Nature Communications, 2017).

In the data set the test system is human choriocarcinoma JEG-3 cells. In words: WST-1 cell proliferation assay (cytotoxicity). Type of data set: cell-based. Particulars: from 1.0 × 10^−6 M to lower concentrations; 24 h. The method, then: Dual-luciferase reporter assays were carried out primarily according to the method described in a previous study. In short, full-length sequences of human oestrogen receptor α and β were amplified by RT-PCR using mRNA from MCF-7 (Supplementary Table 3), and inserted into a pSVSPORT1 (Invitrogen); the resulting constructs were termed pSVhERα and pSVhERβ. A reporter plasmid containing ERE was constructed by inserting four tandem repeats of an ERE of Xenopus laevis vitellogenin A2 into a pGL4.23 vector (Promega), and was termed pGL4-ERE-luc. All of the plasmids constructed were confirmed by sequence analysis. […] The assays were performed in quadruplicate, and the results were expressed as the fold induction of the control after normalization against Renilla luciferase activity. Sigmoidal dose-effect curves were calculated using the GraphPad Prism 4 software. The IC50 values were calculated on the basis of the sigmoidal dose-effect curves. […] After another 24 h, 20 μl of 5 mM WST-1 with 0.2 mM 1-Methoxy-5-methylphenazinium methylsulfate was added for 4 h before the absorbance at 490 nm was measured with a microplate reader (iMark, BioRad). […]
Cell viability was determined using the cell proliferation reagent WST-1 (DOJINDO, Mashiki, Japan). […]
1-Methoxy-5-methylphenazinium methylsulfate was added for four hours before the absorbance at 490 nm was measured with a microplate reader (iMark, BioRad). […]

As to `Oc1ccc(C2(c3ccc(O)cc3)c3ccccc3-c3ccccc32)cc1` [BHPF, 9,9-bis(4-hydroxyphenyl)-fluorene], the cytotoxicity entry is on record as “no obvious cytotoxicity”.
